According to patent US20110021618A1, “METHODS OF TREATING FIBROTIC DISORDERS” (PALOMA PHARMACEUTICALS, INC., priority 2008, published 2011):

What was measured:
[1] = system: epiretinal membrane formation; settings: human patients; cited from earlier work
[2] = system: detached retina (Müller cells, microglia and macrophages, photoreceptors); assay: Experimental retinal detachment, single intravitreal injection (Example 1); type: in vivo, rabbit
[3] = system: detached retina (Müller cells); assay: Experimental retinal detachment, Müller cell proliferation and glial scar formation (Example 2); type: in vivo, rabbit; settings: 600 micrograms intravitreally in PBS, versus PBS
Procedure: Methods: Experimental retinal detachments were made in the right eyes of pigmented rabbits. Six hundred micrograms of Palomid 529 in 50 microliters of PBS, or PBS alone was injected intravitreally on day 0, immediately after retinal detachment. Each rabbit received 10 micrograms of BrdU intravitreally on day 3. Animals were sacrificed on day 3 or 7, at which time the tissue was fixed in paraformaldahyde, embedded in agarose and sectioned at 100 microns. The sections were labeled with anti-BrdU, to detect dividing cells, and anti-vimentin, to identify Müller cells. Labeling was imaged on an Olympus Fluoview confocal microscope, and the resultant digital images were analyzed to determine the number of proliferating cells as well as the number and length of subretinal glial scars.

[4] = Half-life in the vitreous; type: in vivo
CTGF = assay: TGF-β1 stimulated CTGF in human lung fibroblasts, Western Blot; type: cell-based; settings: 30 μM; 30 minutes pre-treatment before TGF-β1
Source text: (§1) Transforming growth factor-beta one (TGF-β1) and alpha-Thrombin (α-Thrombin) are known to be involved in the pathogenesis of fibrotic disease. In an in vitro model of pulmonary fibrosis, TGF-β1 stimulates myofibroblast differentiation of human lung fibroblasts characterized by expression of contractile smooth muscle (SM)-specific proteins such as SM-alpha-actin (SM-α-actin). TGF-β1 also stimulates SM-α-actin expression in human lung fibroblasts which parallels a profound induction of serum response factor (SRF) expression and activity. Increased contractile gene expression with SM-α-actin as marker, increased SRF, increased connective tissue growth factor (CTGF) and increased matrix genes (e.g. fibronectin) are examples of effects observed during myofibroblast differentiation. Myofibroblast differentiation is induced by stimulation with TGF-β1 thereby increasing markers of differentiation.
(§2) Human lung fibroblasts were pre-treated with Palomid 529 for 30 minutes prior to TGF-β1 stimulation. Western Blot with antibodies against CTGF, SRG, SM-α-actin and β-actin is shown.

SRF = assay: TGF-β1 stimulated SRF in human lung fibroblasts, Western Blot; type: cell-based; settings: 30 μM; 30 minutes pre-treatment before TGF-β1
Source text: as §1, §2

SM-α-actin = assay: TGF-β1 stimulated SM-α-actin in human lung fibroblasts, Western Blot; type: cell-based; settings: 30 μM; 30 minutes pre-treatment before TGF-β1
Source text: as §1, §2

p-AKT(S473) = assay: AKT phosphorylation in human lung fibroblasts, Western Blot; type: cell-based; settings: 30 μM
Procedure: Human lung fibroblasts are stimulated for one hour with either TGF-β1 or α-Thrombin in presence of 30 μM Palomid 529 to effect activation of signal transduction proteins. p-AKT(S473) and AKT levels are measured by Western Blot. Scanning software, Scion Image (Scion Corporation, Frederick, Md.), was used to digitize bands on Western Blot for numeric calculation of percent inhibition described in text.

[5] = 7-day detachment, versus control

SMILES	reducing epiretinal membrane formation [1]	average number of anti-BrdU labeled Müller cell nuclei ([2]; 3-day detachment, 600 μg intravitreally, vehicle control 10.79)	reduction of average number of subretinal scars [2, 5]	reduction of length of subretinal scars [2, 5]	average number of subretinal scars ([2]; 7-day detachment, 600 μg intravitreally, control 2.03)	total number of isolectin B4 labeled cells (microglia and macrophages) ([2]; 7-day detachment, 600 μg intravitreally, control 43.9)	average number of anti-BrdU labeled Müller cell nuclei ([2]; 7-day detachment, 600 μg intravitreally, vehicle control 9.83)	average thickness of the ONL ([2]; 7 days of detachment, 600 μg intravitreally, normal retina 34.45 μm, vehicle 19.40 μm) [μm]	average length of subretinal scars ([2]; day 7, 600 μg intravitreally, control 131.28 μm) [μm]	number of BrdU labeled Müller cells per millimeter ([3]; 3 and 7 day time points)	number and size of sub-retinal scars ([3]; day 7)	expected half-life in the vitreous [4]	inhibition of TGF-β1 stimulated increase of CTGF (CTGF) [%]	inhibition of TGF-β1 stimulated increase of SRF (SRF) [%]	inhibition of TGF-β1 stimulated increase of SM-α-actin (SM-α-actin) [%]	inhibition of basal level of AKT phosphorylation (p-AKT(S473); basal, stated with the TGF-β1 result) [%]	decrease of AKT phosphorylation in the absence of α-Thrombin (basal level) (p-AKT(S473); basal, stated with the α-Thrombin result) [%]	inhibition of phosphorylation of AKT stimulated by TGF-β1 (p-AKT(S473); one hour TGF-β1) [%]	decrease of AKT phosphorylation in the presence of α-Thrombin (p-AKT(S473); one hour α-Thrombin) [%]
O=c1[nH]cc(F)c(=O)[nH]1 [5-fluorouracil]	not effective																		
COc1ccc(COc2cc3oc(=O)c4cc(C(C)O)ccc4c3cc2OC)cc1 (stereo not shown) [Palomid 529]		1.19 /mm of retina	approximately 4 fold	more than 20 fold	0.39 /mm of retina	24.5 /mm retina	1.49 /mm of retina	27.21	11.01	statistically significant decrease	significant decrease	at least 3 months	18	29	65	13	15	27	15
